Reference: patent publication US20110281896A1, “OPTICALLY PURE QUINAZOLINE COMPOUNDS” (Jiangsu Hansoh Pharmaceutical Co. Ltd, priority 2009, published 2011)

Tests used:
[1] = test system: MCF-7; assay: Antitumor activity in vitro, SRB cell proliferation inhibition; format: cell-based; settings: 72 h incubation, Logit method
Experimental: (§1) Evaluation of Antitumor Activity In Vitro
(§2) Cell Strains: A431; MCF-7
(§3) Experiment Design: Cells were incubated with different concentrations of compounds for 72 hours. The inhibition of cell proliferation by the compounds was evaluated by SRB, followed by calculation of the inhibition rate. Then, value of IC50 was calculated by using-Logit method base on the inhibition rate and used to compare in vitro antitumor activity of the compounds.
(§4) Method for Calculating the Inhibition Rate: Inhibition rate (%)=(OD value of control group−OD value of drug group)/OD value of control group×100%

[2] = test system: A431; assay: as above; format: cell-based; settings: 72 h incubation, Logit method
Experimental: as §1, §2, §3, §4

[3] = test system: human lung cancer Calu-3 xenografts; assay: Effect on xenografts in nude mice with lung cancer Calu-3; format: in vivo, BALB/cA-nude mice; settings: PO QD × 17
Experimental: Effect of compound 97(±), compound 97, compound 110 and Lapatinib (positive control) on xenografts in nude mice with lung cancer Calu-3 Remark: “±” means the compound is racemic.
The purpose of the experiment is to evaluate and compare the effect of compound 97(±), compound 97, compound 110, Lapatinib on xenografts in nude mice with lung cancer Calu-3.
BALB/cA-nude mice, 6-7 weeks, ♀, purchased from ShangHai Slac laboratory animal Co., Ltd.
Calu-3 cells were injected subcutaneously into nude mice. Animals were divided into groups (d0) randomly after tumors have grown to 150-300 mm^3. Dosage and dosage regimen design can be seen in table 1. Tumors volume was measured 2-3 times per week. Mice were weighed and data were recorded. Calculation formula for tumor volume (V) is as below:
V=½×a×b^2, wherein, a and b represent length and width respectively.

[4] = Homo sapiens, MCF7, MCF-7 cells
[5] = Homo sapiens, A-431, A431 cells

Row | Structure (SMILES) | IC50 [1, 4] | IC50 [2, 5] | IC50 ([1]; MCF-7 cells) | IC50 ([2]; A431 cells) | also measured
1 | CN(C)[C@H](CS(C)(=O)=O)c1ccc(-c2ccc3ncnc(Nc4ccc(OCc5cccc(F)c5)c(Cl)c4)c3c2)o1 [Compound 97, (S)—N-(4-(3-fluorobenzyloxy)-3-chlorophenyl)-6-(5-(1-(N,N-dimethyl-amino)-2-(methylsulfonyl)ethyl)furan-2-yl)quinazolin-4-amine] | 6670 nM | 734 nM |  |  | Initial Tumor Volume (mm^3) D0 ([3]; D0 = time of first administration (baseline), 146.5-146.7 mg/kg, mean): 291.2 mm^3; Final Tumor Inhibition Rate (%) D16 ([3]; D16, 146.5-146.7 mg/kg): 44%; % T/C D16 ([3]; D16, 146.5-146.7 mg/kg, T, C = mean tumor volume of drug, control group): 56%; Relative Tumor Volume D16 ([3]; D16, 146.5-146.7 mg/kg, mean): 1.9; Final Tumor Volume (mm^3) D16 ([3]; D16 = 17th day after administration, 146.5-146.7 mg/kg, mean): 525.4 mm^3; The Recession/Group ([3]; number of mice per group of 6, 146.5-146.7 mg/kg): 0; inhibition of growth of human lung cancer Calu-3 (in words) ([3]; xenografts in nude mice): inhibited the growth of human lung cancer Calu-3 significantly
2 | CCCN(CCC)[C@@H](CS(C)(=O)=O)c1cnc(-c2ccc3ncnc(Nc4ccc(OCc5cccc(F)c5)c(Cl)c4)c3c2)s1 [Compound 125] |  |  | 7760 nM | 523 nM | 
3 | CCN(C)[C@@H](CS(C)(=O)=O)c1cnc(-c2ccc3ncnc(Nc4ccc(OCc5cccc(F)c5)c(Cl)c4)c3c2)s1 [Compound 126] |  |  | 7760 nM | 488 nM | 
4 | C=CCN[C@@H](CS(C)(=O)=O)c1cnc(-c2ccc3ncnc(Nc4ccc(OCc5cccc(F)c5)c(Cl)c4)c3c2)s1 [Compound 127] |  |  | 5890 nM | 521 nM | 
5 | C#CCN[C@@H](CS(C)(=O)=O)c1cnc(-c2ccc3ncnc(Nc4ccc(OCc5cccc(F)c5)c(Cl)c4)c3c2)s1 [Compound 128] |  |  | 6340 nM | 672 nM | 
6 | CON[C@@H](CS(C)(=O)=O)c1cnc(-c2ccc3ncnc(Nc4ccc(OCc5cccc(F)c5)c(Cl)c4)c3c2)s1 [Compound 129] |  |  | 9710 nM | 667 nM | 
7 | CON(C)[C@@H](CS(C)(=O)=O)c1cnc(-c2ccc3ncnc(Nc4ccc(OCc5cccc(F)c5)c(Cl)c4)c3c2)s1 [Compound 130] |  |  | 8590 nM | 536 nM | 
8 | CS(=O)(=O)C[C@@H](N)c1cnc(-c2ccc3ncnc(Nc4ccc(OCc5cccc(F)c5)c(Cl)c4)c3c2)s1 [Compound 131, (R)—N-(4-(3-fluorobenzyl-oxy)-3-chlorophenyl)-6-(5-(1-(amino)-2-(methylsulfonyl)ethyl)thiazole-2-yl)quinazolin-4-amine] | 8520 nM | 582 nM |  |  | 
9 | CN[C@H](CS(C)(=O)=O)c1cnc(-c2ccc3ncnc(Nc4ccc(OCc5cccc(F)c5)c(Cl)c4)c3c2)s1 [Compound 132] |  |  | 9910 nM | 389 nM | 
10 | CCN[C@H](CS(C)(=O)=O)c1cnc(-c2ccc3ncnc(Nc4ccc(OCc5cccc(F)c5)c(Cl)c4)c3c2)s1 [Compound 133] |  |  | 7890 nM | 554 nM | 
11 | CCCN[C@H](CS(C)(=O)=O)c1cnc(-c2ccc3ncnc(Nc4ccc(OCc5cccc(F)c5)c(Cl)c4)c3c2)s1 [Compound 134] |  |  | 6510 nM | 580 nM | 
12 | CN(C)[C@H](CS(C)(=O)=O)c1cnc(-c2ccc3ncnc(Nc4ccc(OCc5cccc(F)c5)c(Cl)c4)c3c2)s1 [Compound 136] |  |  | 5430 nM | 449 nM | 
13 | CCN(CC)[C@H](CS(C)(=O)=O)c1cnc(-c2ccc3ncnc(Nc4ccc(OCc5cccc(F)c5)c(Cl)c4)c3c2)s1 [Compound 137] |  |  | 5470 nM | 589 nM | 
14 | CCCN(CCC)[C@H](CS(C)(=O)=O)c1cnc(-c2ccc3ncnc(Nc4ccc(OCc5cccc(F)c5)c(Cl)c4)c3c2)s1 [Compound 138] |  |  | 4600 nM | 426 nM | 
15 | CCN(C)[C@H](CS(C)(=O)=O)c1cnc(-c2ccc3ncnc(Nc4ccc(OCc5cccc(F)c5)c(Cl)c4)c3c2)s1 [Compound 139] |  |  | 4130 nM | 452 nM | 
16 | C=CCN[C@H](CS(C)(=O)=O)c1cnc(-c2ccc3ncnc(Nc4ccc(OCc5cccc(F)c5)c(Cl)c4)c3c2)s1 [Compound 140] |  |  | 4020 nM | 648 nM | 

Row | Structure (SMILES) | IC50 [1, 4] | IC50 [2, 5] | IC50 ([1]; MCF-7 cells) | IC50 ([2]; A431 cells) | also measured
17 | C#CCN[C@H](CS(C)(=O)=O)c1cnc(-c2ccc3ncnc(Nc4ccc(OCc5cccc(F)c5)c(Cl)c4)c3c2)s1 [Compound 141] |  |  | 7620 nM | 486 nM | 
18 | CON[C@H](CS(C)(=O)=O)c1cnc(-c2ccc3ncnc(Nc4ccc(OCc5cccc(F)c5)c(Cl)c4)c3c2)s1 [Compound 142] |  |  | 7860 nM | 500 nM | 
19 | CON(C)[C@H](CS(C)(=O)=O)c1cnc(-c2ccc3ncnc(Nc4ccc(OCc5cccc(F)c5)c(Cl)c4)c3c2)s1 [Compound 143] |  |  | 5090 nM | 788 nM | 
20 | CS(=O)(=O)C[C@@H](N)c1ccc(-c2ccc3ncnc(Nc4ccc5c(cnn5Cc5cccc(F)c5)c4)c3c2)o1 [Compound 144, (S)—N-(1-(3-fluorobenzyl)-1H-indazol-5-yl)-6-(5-(1-(amino)-2-(methylsulfonyl)ethyl)furan-2-yl)quinazolin-4-amine] | 4970 nM | 711 nM |  |  | 
21 | CN[C@H](CS(C)(=O)=O)c1ccc(-c2ccc3ncnc(Nc4ccc5c(cnn5Cc5cccc(F)c5)c4)c3c2)o1 [Compound 145, (S)—N-(1-(3-fluorobenzyl)-1H-indazol-5-yl)-6-(5-(1-(methylamino)-2-(methylsulfonyl)ethyl)furan-2-yl)quinazolin-4-amine] | 8240 nM | 581 nM |  |  | 
22 | CCN[C@H](CS(C)(=O)=O)c1ccc(-c2ccc3ncnc(Nc4ccc5c(cnn5Cc5cccc(F)c5)c4)c3c2)o1 [Compound 146, (S)—N-(1-(3-fluorobenzyl)-1H-indazol-5-yl)-6-(5-(1-(ethylamino)-2-(methylsulfonyl)ethyl)furan-2-yl)quinazolin-4-amine] | 5460 nM | 489 nM |  |  | 
23 | CCCN[C@H](CS(C)(=O)=O)c1ccc(-c2ccc3ncnc(Nc4ccc5c(cnn5Cc5cccc(F)c5)c4)c3c2)o1 [Compound 147, (S)—N-(1-(3-fluorobenzyl)-1H-indazol-5-yl)-6-(5-(1-(propylamino)-2-(methylsulfonyl)ethyl)furan-2-yl)quinazolin-4-amine] | 8010 nM | 406 nM |  |  | 
24 | CN(C1CC1)[C@H](CS(C)(=O)=O)c1ccc(-c2ccc3ncnc(Nc4ccc5c(cnn5Cc5cccc(F)c5)c4)c3c2)o1 [Compound 148, (S)—N-(1-(3-fluorobenzyl)-1H-indazol-5-yl)-6-(5-(1-(cyclopropyl-methyl-amino)-2-(methylsulfonyl)ethyl)furan-2-yl)quinazolin-4-amine] | 7000 nM | 442 nM |  |  | 
25 | CN(C)[C@H](CS(C)(=O)=O)c1ccc(-c2ccc3ncnc(Nc4ccc5c(cnn5Cc5cccc(F)c5)c4)c3c2)o1 [Compound 149, (S)—N-(1-(3-fluorobenzyl)-1H-indazol-5-yl)-6-(5-(1-(N,N-dimethylamino)-2-(methylsulfonyl)ethyl)furan-2-yl)quinazolin-4-amine] | 7230 nM | 349 nM |  |  | 
26 | CCN(CC)[C@H](CS(C)(=O)=O)c1ccc(-c2ccc3ncnc(Nc4ccc5c(cnn5Cc5cccc(F)c5)c4)c3c2)o1 [Compound 150] |  |  | 6670 nM | 624 nM | 
27 | CCCN(CCC)[C@H](CS(C)(=O)=O)c1ccc(-c2ccc3ncnc(Nc4ccc5c(cnn5Cc5cccc(F)c5)c4)c3c2)o1 [Compound 151] |  |  | 6080 nM | 637 nM | 
28 | CCN(C)[C@H](CS(C)(=O)=O)c1ccc(-c2ccc3ncnc(Nc4ccc5c(cnn5Cc5cccc(F)c5)c4)c3c2)o1 [Compound 152] |  |  | 6540 nM | 601 nM | 
29 | C=CCN[C@H](CS(C)(=O)=O)c1ccc(-c2ccc3ncnc(Nc4ccc5c(cnn5Cc5cccc(F)c5)c4)c3c2)o1 [Compound 153, (S)—N-(1-(3-fluorobenzyl)-1H-indazol-5-yl)-6-(5-(1-(allyl-amino)-2-(methylsulfonyl)ethyl)furan-2-yl)quinazolin-4-amine] | 5870 nM | 857 nM |  |  | 
30 | C#CCN[C@H](CS(C)(=O)=O)c1ccc(-c2ccc3ncnc(Nc4ccc5c(cnn5Cc5cccc(F)c5)c4)c3c2)o1 [Compound 154, (S)—N-(1-(3-fluorobenzyl)-1H-indazol-5-yl)-6-(5-(1-(propargyl-amino)-2-(methylsulfonyl)ethyl)furan-2-yl)quinazolin-4-amine] | 4900 nM | 624 nM |  |  | 
31 | CON[C@H](CS(C)(=O)=O)c1ccc(-c2ccc3ncnc(Nc4ccc5c(cnn5Cc5cccc(F)c5)c4)c3c2)o1 [Compound 155] |  |  | 8590 nM | 480 nM | 
32 | CON(C)[C@H](CS(C)(=O)=O)c1ccc(-c2ccc3ncnc(Nc4ccc5c(cnn5Cc5cccc(F)c5)c4)c3c2)o1 [Compound 156] |  |  | 5520 nM | 428 nM | 
